Laboratory results published in ChEMBL document CHEMBL3638391, “Flap modulators” (2015).

Molecular target: T1, Arachidonate 5-lipoxygenase-activating protein (Homo sapiens, UniProt P20292)
T1 sequence (P20292 whole entry): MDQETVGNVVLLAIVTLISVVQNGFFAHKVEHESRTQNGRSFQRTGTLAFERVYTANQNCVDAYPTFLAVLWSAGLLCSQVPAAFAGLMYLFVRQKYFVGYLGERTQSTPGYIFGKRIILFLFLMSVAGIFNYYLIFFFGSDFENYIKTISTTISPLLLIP
Experiment: Homogeneous Time Resolved Fluorescence Assay: The assay below is used to test the modulatory activity of compounds against FLAP. Human and mouse FLAP-encoding DNA was amplified by polymerase chain reaction and cloned into pFastBacl (Invitrogen) with a NH2-terminal 6-His tag for expression in Spodoptera frugiperda (Sf-9) cells. FLAP-containing membranes were prepared as was a FITC-labeled FLAP …
Description: Homogeneous Time Resolved Fluorescence Assay: The assay below is used to test the modulatory activity of compounds against FLAP. Human and mouse FLAP-encoding DNA was amplified by polymerase chain reaction and cloned into pFastBacl (Invitrogen) with a NH2-terminal 6-His tag for expression in Spodoptera frugiperda (Sf-9) cells. FLAP-containing membranes were prepared as was a FITC-labeled FLAP modulator [5-[({[2-(2-{3-[3-(tert-Butylsulfanyl)-1-(4-chlorobenzyl)-5-(quinolin-2-ylmethoxy)-1H-indol-2-yl]-2,2-dimethylpropanoyl}hydrazino)-2-oxoethyl]sulfanyl}acetyl)amino]-2-(6-hydroxy-3-oxo-3H-xanthen-9-yl)benzoic acid]. The FLAP binding assay is performed in HTRF format (homogeneous time resolved fluorescence).

Ki: 3.2 nM
SMILES: C[C@@H]([C@@H](O)c1ccccc1)N(C)S(=O)(=O)c1ccccc1-c1ccc(-c2ccc(N)nc2)c(F)c1
